According to publication PMC6100724, “Proteome‐wide analysis of phospho‐regulated PDZ domain interactions” (Molecular Systems Biology, 2018):

Experiments:
Assay in all cases: Phosphomimetic ProP-PD selection with NGS
[1] = test system: Scribble PDZ3; format: binding, human; details: bait Scribble PDZ3
Description: (§1) Phage selections were carried out for four rounds following a protocol by Huang and Sidhu (Huang & Sidhu, 2011) with minor modifications. Non‐specific binding phage was removed by pre‐selections against immobilized GST throughout the selection. The selections against the (pre‐)phosphorylated wild‐type library were performed in 50 mM HEPES (pH 7.4) and 150 mM NaCl (HBS) following the same procedure after pre‐phosphorylation of the library.
(§2) • Immobilize proteins (15 μg in 100 μl PBS) in a 96‐well MaxiSorp microtiter plate (NUNC) overnight at 4°C. • Start a 2YT culture of E. coli Omnimax supplemented with 100 μg/ml tetracycline to retain the F pilus epitope. • Block the wells with 200 μl 0.5% BSA in PBS for 2 h at 4°C. • Precipitate naïve phage library (10^11 cfu per selection) or amplified phage pool from the previous round of selection by adding one‐fifth the volume of PEG/NaCl. • Incubate on ice for 10 min, and pellet precipitated phage by centrifugation at 5,300 g for 15 min. Resuspend the phage pellet in 100 μl PBS per selection. • Add 100 μl of phage solution to the GST‐coated pre‐selection wells and incubate for 1 h. • Transfer the phage solution to the immobilized target proteins and allow it to bind for 2 h at 8°C. • Wash the plate four times with 200 μl cold wash buffer (PBS, 0.05% Tween‐20). • Elute bound phage by incubation with 100 μl log phase (0.6–0.8 OD600) E. coli Omnimax for 30 min at 37°C with shaking (200 RPM). • Add 10^12 cfu/ml M13K07 helper phage for hyperinfection of the bacteria and incubate as above for 45 min. • Transfer the bacterial culture to 10 ml 2YT supplemented with 50 μg/ml carbenicillin, 25 μg/ml kanamycin, and 300 μM IPTG and incubate overnight at 37°C while shaking. • Perform phage pool ELISA to monitor the progress of the selection as described previously (Huang & Sidhu, 2011).
(§3) The naïve library and the enriched phage pools of the third day of selection were amplified and barcoded by PCR and analyzed by NGS as described elsewhere (McLaughlin & Sidhu, 2013; Ivarsson et al, 2014). The reads were demultiplexed using the barcode sequences and filtered by discarding sequences with a Phred quality score under 30. Sequences were mapped to the original library using Bowtie (Langmead et al, 2009) with two mismatches between reads and library sequence. Nucleotide mutations leading to amino acid substitutions were subsequently removed. Cutoff values of NGS counts were assigned for each pool. PWMs were generated based on the remaining peptides (aligned on the C‐termini) using WebLogo (Crooks et al, 2004).
(§4) However, there was no significant correlation of the actual read counts (selection “strength”) and the initial representation in the library, reflecting the strong selection during phage display (wt+mimetic: P‐value: 0.49, ρ = −0.08, mimetic only: P‐value: 0.069, ρ = −0.2, wt only: P‐value: 0.12, ρ = 0.17). Consequently, the amount of reads for each binder after phage display is not a function of the amount of input reads in the naïve library and no modeling based on the input library frequencies to score the interactions is necessary. To allow for comparison between replicate selections, we used the fraction of NGS reads within a certain set, instead of the absolute number of NGS reads, as the absolute numbers differ between different NGS batches.

[2] = biological target: T1, Scribble PDZ1 (Homo sapiens, UniProt Q14160); format: binding; details: for Mean fraction #NGS counts wt peptide / total counts selection / Mean fraction #NGS counts mimetic peptide / total count selection: bait Scribble PDZ1, mean of selections 1-3
T1 construct: human Scribble PDZ1 aa 719–829 in; made in house; host or cells: E. coli BL21 Gold (DE3)
Description: as §1, §2, §3, §4

[3] = biological target: T2, DLG1 PDZ2 (Homo sapiens, UniProt Q12959); format: binding; details: mean of selections 1-3, bait DLG1 PDZ2
T2 construct: human DLG1 PDZ2 aa 311–407 in a modified pRSET vector 40; made in house; host or cells: E. coli BL21 Gold (DE3)
Description: as §1, §2, §3, §4

[4] = mean of selections 1-3, phosphomimetic peptide
[5] = mean of selections 1-3, wild type peptide

T2 sequence (Q12959 311-407): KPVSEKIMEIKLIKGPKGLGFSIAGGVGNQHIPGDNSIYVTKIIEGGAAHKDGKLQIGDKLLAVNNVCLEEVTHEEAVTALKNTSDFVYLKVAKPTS
T1 sequence (Q14160 719-829): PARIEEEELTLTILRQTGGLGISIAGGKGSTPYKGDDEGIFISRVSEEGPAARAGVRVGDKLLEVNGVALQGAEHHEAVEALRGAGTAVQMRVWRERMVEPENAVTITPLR

MKRLTSTRL
Mean fraction #NGS counts wt peptide / total counts selection ([1]; mean over selections 1-3): 3.6122e-5
Mean fraction #NGS counts wt peptide / total counts selection [2]: 2.8701e-5

MRLQEETEV
Mean fraction #NGS counts mimetic peptide / total count selection [3]: 0.0001421

MRLQEETSV
Mean fraction #NGS counts mimetic peptide / total count selection [3]: 0.0002419

NSTNMESEL
Mean fraction #NGS counts mimetic peptide / total count selection [1, 4]: 0.001938

NSTNMESSL
Mean fraction #NGS counts wt peptide / total counts selection [1, 5]: 0

PEHVLQTQI
Mean fraction #NGS counts mimetic peptide / total count selection [2]: 0.0001068

PIHELETEL
Mean fraction #NGS counts mimetic peptide / total count selection [1, 4]: 0.0005099

PIHELETSL
Mean fraction #NGS counts mimetic peptide / total count selection ([1]; mean over selections 1-3): 0
Mean fraction #NGS counts mimetic peptide / total count selection [2]: 0

PIHSLEESL
Mean fraction #NGS counts mimetic peptide / total count selection ([1]; mean over selections 1-3): 7.932e-6
Mean fraction #NGS counts mimetic peptide / total count selection [2]: 0

PIHSLETEL
Mean fraction #NGS counts mimetic peptide / total count selection ([1]; mean over selections 1-3): 0.002436
Mean fraction #NGS counts mimetic peptide / total count selection [2]: 0.002226

PIHSLETSL
Mean fraction #NGS counts wt peptide / total counts selection [1, 5]: 0.001163
Mean fraction #NGS counts wt peptide / total counts selection ([1]; mean over selections 1-3): 0.001163
Mean fraction #NGS counts wt peptide / total counts selection [2]: 0.0009794

PLHELETEL
Mean fraction #NGS counts mimetic peptide / total count selection [1, 4]: 0.00248

PLHELETSL
Mean fraction #NGS counts mimetic peptide / total count selection ([1]; mean over selections 1-3): 0
Mean fraction #NGS counts mimetic peptide / total count selection [2]: 0

PLHSLEESL
Mean fraction #NGS counts mimetic peptide / total count selection ([1]; mean over selections 1-3): 0
Mean fraction #NGS counts mimetic peptide / total count selection [2]: 0

PLHSLETEL
Mean fraction #NGS counts mimetic peptide / total count selection ([1]; mean over selections 1-3): 0.01661
Mean fraction #NGS counts mimetic peptide / total count selection [2]: 0.01704

PLHSLETSL
Mean fraction #NGS counts wt peptide / total counts selection [1, 5]: 0.0002079
Mean fraction #NGS counts wt peptide / total counts selection ([1]; mean over selections 1-3): 0.0002261
Mean fraction #NGS counts wt peptide / total counts selection [2]: 0.0001571

PTHVLQTQI
Mean fraction #NGS counts wt peptide / total counts selection [2]: 0

QKFRAETAL
Mean fraction #NGS counts mimetic peptide / total count selection ([1]; mean over selections 1-3): 0.001978
Mean fraction #NGS counts mimetic peptide / total count selection [2]: 0.002401

QKFRASTAL
Mean fraction #NGS counts wt peptide / total counts selection ([1]; mean over selections 1-3): 4.038e-6
Mean fraction #NGS counts wt peptide / total counts selection [2]: 0

RATEWYSPY
Mean fraction #NGS counts mimetic peptide / total count selection [3]: 0

RATSWYSPY
Mean fraction #NGS counts wt peptide / total counts selection [3]: 0.002312

RPHTNETEL
Mean fraction #NGS counts mimetic peptide / total count selection ([1]; mean over selections 1-3): 0.00587
Mean fraction #NGS counts mimetic peptide / total count selection [2]: 0.008773

RPHTNETSL
Mean fraction #NGS counts wt peptide / total counts selection ([1]; mean over selections 1-3): 0.0004079
Mean fraction #NGS counts wt peptide / total counts selection [2]: 0.0005328

RPLRREEEI
Mean fraction #NGS counts mimetic peptide / total count selection ([1]; mean over selections 1-3): 0

RPLRRESEI
Mean fraction #NGS counts wt peptide / total counts selection ([1]; mean over selections 1-3): 8.219e-5
Mean fraction #NGS counts mimetic peptide / total count selection [3]: 0
Mean fraction #NGS counts wt peptide / total counts selection [3]: 3.748e-5

RSEMKPGFV
Mean fraction #NGS counts mimetic peptide / total count selection ([3]; phosphomimetic peptide): 0

RSSMKPGFV
Mean fraction #NGS counts wt peptide / total counts selection ([3]; wild type peptide): 0.02056

SATSVHTSV
Mean fraction #NGS counts wt peptide / total counts selection ([3]; wild type peptide): 0.0005933

SIDLWETAL
Mean fraction #NGS counts wt peptide / total counts selection ([1]; mean over selections 1-3): 0.004105

SPTVHVTEL
Mean fraction #NGS counts wt peptide / total counts selection ([1]; mean over selections 1-3): 5.538e-5
Mean fraction #NGS counts wt peptide / total counts selection [2]: 0.0001068

SQSRMETNM
Mean fraction #NGS counts mimetic peptide / total count selection ([1]; mean over selections 1-3): 0.0002587

SRKRTESFL
Mean fraction #NGS counts mimetic peptide / total count selection ([1]; mean over selections 1-3): 0.0004518

SRKRTSSFL
Mean fraction #NGS counts wt peptide / total counts selection ([1]; mean over selections 1-3): 0

TMFLRETEL‐coo‐
occurrence in NGS of the selection relative to wild‐type counterpart ([2]; phage-displayed peptide, phosphomimetic ProP‐PD selection against Scribble PDZ1): three times more

VKRLLESVF
Mean fraction #NGS counts mimetic peptide / total count selection [2]: 0.005379

VKRLLSSVF
Mean fraction #NGS counts wt peptide / total counts selection [2]: 0

VREKLPSNL
Mean fraction #NGS counts mimetic peptide / total count selection [2]: 0

VRKLPETEL
Mean fraction #NGS counts mimetic peptide / total count selection [1, 4]: 0.01059
Mean fraction #NGS counts mimetic peptide / total count selection [2]: 4.38e-5

VRKLPETTL
Mean fraction #NGS counts mimetic peptide / total count selection ([1]; mean over selections 1-3): 0.002417

VRSKLPSNL
Mean fraction #NGS counts wt peptide / total counts selection [2]: 4.38e-5

VTEERETNI
Mean fraction #NGS counts mimetic peptide / total count selection ([1]; mean over selections 1-3): 4.038e-6

VTSERETNI
Mean fraction #NGS counts wt peptide / total counts selection ([1]; mean over selections 1-3): 0.001424
